Results on five molecules are retold here after patent publication US20190256499A1, “SUBSTITUTED QUINOXALINE DERIVATIVES AS INHIBITORS OF PFKFB” (priority 2016, published 2019).

Data set [1] in a line: Microsomal stability (intrinsic clearance), human liver microsomes. It is filed as in vitro ADME. Set-up: microsomal CLint: dose or concentration left out as unconfirmed. Particulars: human, liver microsomes, pH 7.4, human liver microsomes. The source says:
A microsomal stability assay is used to measure in vitro clearance (Clint). The assay involves measuring the rate of disappearance of a compound due to its intrinsic attitude to be metabolized (“intrinsic” meaning that the disappearance is not affected by other properties like permeability, binding etc. that play a role when quantifying in vivo clearance). The microsomal stability (intrinsic clearance, Clint) and thus metabolic stability is generally given as μl/min/mg protein. It can be visualized as the volume of solution that 1 mg of microsomes is able to clear of the compound in one minute.
A Tecan Genesis workstation (RSP 150/8) was used for to perform the microsomal incubations. Analysis was carried out using a Waters ACQUITY UPLC system coupled to an ABSciex API3000 mass spectrometer. Data analysis was performed using Assay Explorer (Symyx).
Mobile phases: A=0.1% formic acid in water; B=acetonitrile
Flow rate: 0.750 mL/min; Detection: ESI, MRM; Injection: 10 μL; Column temperature: 50° C.
Potassium phosphate buffer: 0.05 M potassium phosphate buffer pH 7.4 containing 1 mM MgCl2 NADPH (nicotinamide adenine dinucleotide phosphate): 22.5 mg NADPH-Na4 in 1.8 ml potassium phosphate buffer Acetonitrile: 50 Vol % acetonitrile (1 volume acetonitrile, 1 volume water) DMSO: 20 Vol % DMSO in water Stock solution of 20 mg/ml human or mouse liver microsomes (protein)/ml in phosphate buffer Stock solution of 10 mM compound in 100% DMSO
In general terms: Microsomes from liver hold many membrane-bound enzymes, among them those of drug oxidation.

A short description of a further data set: Kinetic solubility. It counts as physicochemical. Particulars: phosphate buffer, pH 7.4, aqueous buffer, kinetic from dmso stock, phosphate buffer 20 mM pH 7.4, 2% DMSO, room temperature. How it is done:
Kinetic solubility of compounds of the present invention were tested according the following procedure.
(a) Buffer Solution Phosphate Buffer 20 mM pH 7.4 is prepared using Sorensen Phosphate Buffer 0.2 M pH 7.4 (EMS) in a 1000 mL volumetric flask (b) 2% DMSO in Phosphate Buffer 20 mM pH 7.4 is prepared by using 1 mL Dimethylsulfoxide (Merck) and 49 ml Sorensen Phosphate Buffer 20 mM pH 7.4 (c) Acetonitrile/Methanole/Eluent A (1:1:2; v/v/v) is prepared by using 50 mL Acetonitrile (Merck), 50 mL Methanol (Merck) and 100 mL Eluent A (d) Eluent A is prepared by using 1 mL Formic Acid (Merck) and 999 mL Ultrapure water (e) Eluent B is prepared by using 1 mL Formic Acid (Merck) and 999 mL Acetonitrile (Merck) (f) Filtration plate: Millipore MultiScreen HTS HV (0.45 μm) 96 Well (Millipore)
98 μL buffer solution (a) is added into a well of a 96 well filtration plate (f). Then 2 μL of 10 mM test compound solution in DMSO (Remp tube) is added. The filtration plate is incubated at room temperature for 120 minutes while agitating at 250 rpm and centrifuged with the PP-Plate (g) as receiver plate below (2500 rpm, 3 min). The 50 μL of filtrate is taken from the receiver plate and mixed with 50 μL of 2% DMSO in buffer pH 7.4 solution (b) (dilution factor=2) in a HPLC Vial (i)+(j).
Standard is prepared by diluting 2 μL of the same 10 mM test compound solution (Remp tube) diluted with 198 μL Acetonitrile/Methanole/Eluent A (1:1:2; v/v/v) (c) to prepare a 100 μM standard solution in a HPLC Vial (i)+(j).
Column temperature: 37° C. Autosampler: room temperature (approx. 25° C.) Gradient programme: […]
Injection volume: 10 μL Wavelength: Suitable wavelength (maximum sensitivity) selected out of wavelength range of 190-400 nm using a DAD detector.
L [μg/mL]=(area sample*concentration standard*dilution factor sample)/(area standard*dilution factor standard)
S [mol/L]=[…] Calculation: […]

The nature of data set [2]: Solubility PBS (thermodynamic solubility, shake flask method). It counts as physicochemical. Particulars: phosphate buffer (PBS), aqueous buffer, thermodynamic from solid, PBS pH 7.4, 24 hours at 37° C. How it is done: The method involves dissolving the test compound in a solvent at a constant temperature followed by HPLC determination of the concentration of the solute in the solution, which must not contain any undissolved particles.
Phosphate Buffer pH 7.4 is prepared by using 50 mL monobasic potassium phosphate solution 0.2 M in a 200-mL volumetric flask and adding 39.1 mL of sodium hydroxide solution 0.2 M and then adding water to volume.
Standard solution is prepared by weighing in a standard compound (about 1 mg) into a flask and dissolved completely in a solution of acetonitrile/methanol (1:1; V/V).
The sample of the test compound (about 2-3 mg) is weighed into a Uniprep® syringeless filter (5 mL; 0.45 μm), the 2 mL of solvent is added and the mixture is agitated for 24 hours at 37° C. The suspension is filtered after 24 hours and the concentration of dissolved substance is determined by HPLC. The result is stated as >x μg/mL, calculated from the sample weight taken and the volume of solvent used
Eluent A: Ultrapure water/Formic acid GR for analysis (999:1, V/V) Eluent B: Acetonitrile/Formic acid GR for analysis (999:1, V/V)
The result is determined quantitatively based on the external standard method through integration of the peak areas with reference to the figures obtained for the standard substance.
L[μg/mL]=a(A)*c(S)*F(A)/a(S)*F(S) Calculation: • a (A)=peak area for analyte/mL • a (S)=peak area for standard/mL • c (S)=concentration of standard (μg/mL) • F (A)=dilution factor for analyte • F (S)=dilution factor for standard

≈ marks a conversion by molar mass, not a printed value.

Usually microsomal CLint stands for the rate of metabolic loss divided by the concentration. One may read the solubility (kinetic) as the concentration staying in solution when a stock, usually in DMSO, is diluted into the medium. One may read the solubility as the concentration that dissolves in the medium under given conditions. Regarding `Cn1cc([C@H](Nc2cc(-c3ccc4ccn(C)c4c3)c3nccnc3c2)c2cncn2C)cn1` (single isomer, unassigned) [Example 11], in data set [1], the microsomal CLint was 130 µL/min/mg. Moreover, the kinetic solubility at 120 min in “Kinetic solubility” stood at 100 µM (≈ 44.9 µg/mL). In data set [2], this molecule displayed a solubility at 24 h of 4 µg/mL (≈ 8.92 µM).

The molecule `COc1ccc([C@@H](Nc2cc(-c3ccc4ccn(C)c4c3)c3nccnc3c2)c2cccnc2)cn1` [Comparative Example 4, [(S)-(6-methoxy-pyridin-3-yl)-pyridin-3-yl-methyl]-[8-(1-methyl-1H-indol-6-yl)-quinoxalin-6-yl]-amine, reference compound] gave an intrinsic metabolic clearance (microsomal CLint) in data set [1] of 214 µL/min/mg. In “Kinetic solubility”, this molecule registered a solubility (kinetic) at 120 min of 3.7 µM (≈ 1.75 µg/mL). Further, in data set [2], the solubility at 24 h was found to be 1 µg/mL (≈ 2.12 µM).

Molecule `Cn1cc([C@H](Nc2cc(-c3ccc4ccn(C)c4c3)c3nccnc3c2)c2cnnn2C)cn1` (single isomer, unassigned) [Example 8] registered a microsomal CLint in data set [1] of 50 µL/min/mg. Further, the kinetic solubility at 120 min in the data set “Kinetic solubility” stood at 110 µM (≈ 49.4 µg/mL). The solubility at 24 h in data set [2] came to 80 µg/mL (≈ 178 µM).

On to `Cn1ccc2ccc(-c3cc(NC(c4cccnc4)c4ccc(=O)[nH]n4)cc4nccnc34)cc21` (single isomer, unassigned) [Example 2], for which the microsomal CLint in data set [1] is 78 µL/min/mg. The same molecule had a solubility (kinetic) at 120 min in the data set “Kinetic solubility” of 61 µM (≈ 28 µg/mL). Also, the solubility at 24 h in data set [2] is 10 µg/mL (≈ 21.8 µM).

Turning to `COc1ccc([C@@H](Nc2cc(-c3ccc4ccn(C)c4c3)c3nccnc3c2)c2cccnc2)nn1` (single isomer, unassigned) [Example 5], the intrinsic clearance (microsomal CLint) in data set [1] amounted to 264 µL/min/mg. In “Kinetic solubility”, this molecule registered a kinetic solubility at 120 min of 20 µM (≈ 9.47 µg/mL). For the same molecule, the concentration in solution in data set [2] (solubility at 24 h) was 4 µg/mL (≈ 8.45 µM).
